Measurements from US12550899B2, “Topramezone derivative and use thereof” (priority 2023, dated 2026).
“Also recorded” adds a separate entry of the source.

Experiments:
Digitaria sanguinalis = assay: Laboratory rainfastness test (foliar spray, simulated rainfall); type: in vivo; details: for Average fresh weight / Control efficacy: 20 days post-application
Description: Refer to the “Pesticides guidelines for laboratory bioactivity tests Part 4: Foliar spray application test for herbicide activity, NY/T 1155.4-2006”.
The soil used for the test was a mixture of surface 20 cm loam and vermiculite, mixed in a volume ratio of 3:1 to form a culture soil. The test weeds were cultured in a glass greenhouse with a temperature ranging from 25° C. to 35° C. and under natural light.
A measured quantity of Digitaria sanguinalis seeds were sown in plastic pots with a diameter of 9 cm, and covered with 1-2 mm of soil. The ports were then placed in enamel trays filled with water, and watered by bottom irrigation. After the water seeped to the soil surface, the pots were transferred to the glass greenhouse for standby.
Five dosages were set for Compound I, Compound II and the control herbicide Topramezone, which were 3.75, 7.5, 15, 30 and 60 grams of active ingredient per hectare respectively. In addition, a blank control was also prepared.
The required amount of the herbicide was accurately measured out and directly added with water, which was diluted to the required dosage by using the serial dilution method for standby.
(§1) The test was conducted on Digitaria sanguinalis at the two-leaf and one-heart stage, with the stems and leaves both sprayed uniformly. The ASS-4 automatic control spraying system with a fan-shaped nozzle was used indoors for herbicide application. Depending on the nozzle pressure and flow rate, 50 mL of herbicide solution was applied to a spraying area of 1.1 m^2 (which was equivalent to the water consumption of 30 L per mu). The system's operating speed was calibrated. The plastic pots to be treated were arranged evenly on the spraying platform to ensure uniform treatment. The spray pressure was set to 0.35 MPa, and the flow rate of the fan-shaped nozzle was set to 800 mL/min. The spraying was carried out in sequence from the low dosage to the high dosage. Each treatment was repeated four times.
The rainfastness test was set as follows: at 0.5 hours, 1.0 hour, 3.0 hours, and 6.0 hours after the application of the herbicide, the weeds that have already been sprayed with the herbicide were subjected to stem and leaf showering with a specific shower equipment simulating rainfall. Weeds that were not subjected to the showering treatment served as the control group.
The damage symptoms of the weeds (such as growth inhibition, chlorosis, malformation, etc.) were carefully recorded at 3, 7, 10, and 20 days after herbicide application. A visual comparison of the herbicide effectiveness was made after simulated rainfall at different time intervals. At 20 days post-application, the fresh weight of the aboveground parts of the weeds from each treatment group was measured, and the fresh weight control efficacy was calculated.
The treatment results were calculated according to the following formula: weed fresh weight control efficacy (%)=(control fresh weight−treatment fresh weight)/control fresh weight×100. A DPS statistical software was used to conduct regression analysis on the logarithmic values of the herbicide dosage and the probit values of the weed fresh weight control efficacy, and the correlation coefficient, GR50, GR90, and the 95% confidence interval were calculated.

corn = assay: Corn safety laboratory test, visual observation and overall conclusion; type: in vivo
Description: Three corn varieties: Zhengdan 958, white waxy corn, and sweet corn (Runhua sweet corn).
The soil used for the test was a mixture of surface 20 cm loam and vermiculite, mixed in a volume ratio of 3:1 to form a culture soil. The test corn was cultured in a glass greenhouse with a temperature ranging from 25° C. to 35° C. and under natural light.
A measured quantity of corn seeds were sown in plastic pots with a diameter of 15 cm, and covered with 2-3 cm of soil. The ports were then placed in enamel trays filled with water, and watered by bottom irrigation. After sowing, the pots were transferred to the glass greenhouse for cultivation and growth.
In the corn safety test, dosages were set for the two Compounds (Compound I of the present invention and Compound II of the present invention) and the control herbicide Topramezone, which were 15, 30, 60, and 120 grams of active ingredient per hectare respectively. In addition, a blank control was also prepared.
The required amount of the herbicide was accurately measured out, an appropriate amount of emulsifier and organic solvent were added to dissolve the herbicide, and then a certain amount of water was added therein until the herbicide was diluted to the required dosage by using the serial dilution method for standby.
Corn stems and leaves were uniformly sprayed at the 3-4-leaf stage.
as §1, with “ASS-3” for “test was conducted on Digitaria sanguinalis at the two-leaf and one-heart stage, with the stems and leaves both sprayed uniformly. The ASS-4”, “three” for “four”
The herbicide was applied once. After spraying, the pots were air-dried for one day and then placed in the glass greenhouse. Regular watering was conducted to maintain moisture.
After application of the herbicide, whether there were any phytotoxic symptoms in the corn for each treatment was recorded. If yes, the phytotoxicity symptoms and grade were recorded in detail. 15 days after application, the fresh weight of the corn in each treatment was measured and the fresh weight control efficacy was calculated to assess the safety of the herbicide on the corn.

[1] = No spraying (no simulated rainfall), dosage 3.75 g/hectare
[2] = No spraying (no simulated rainfall), dosage 7.5 g/hectare
[3] = No spraying (no simulated rainfall), dosage 15 g/hectare
[4] = No spraying (no simulated rainfall), dosage 30 g/hectare
[5] = No spraying (no simulated rainfall), dosage 60 g/hectare
[6] = Spraying water 0.5 hour after herbicide application, dosage 3.75 g/hectare
[7] = Spraying water 0.5 hour after herbicide application, dosage 7.5 g/hectare
[8] = Spraying water 0.5 hour after herbicide application, dosage 15 g/hectare
[9] = Spraying water 0.5 hour after herbicide application, dosage 30 g/hectare
[10] = Spraying water 0.5 hour after herbicide application, dosage 60 g/hectare
[11] = Spraying water 1.0 hour after herbicide application, dosage 3.75 g/hectare
[12] = Spraying water 1.0 hour after herbicide application, dosage 7.5 g/hectare
[13] = Spraying water 1.0 hour after herbicide application, dosage 15 g/hectare
[14] = Spraying water 1.0 hour after herbicide application, dosage 30 g/hectare
[15] = Spraying water 1.0 hour after herbicide application, dosage 60 g/hectare
[16] = Spraying water 3.0 hour after herbicide application, dosage 3.75 g/hectare
[17] = Spraying water 3.0 hour after herbicide application, dosage 7.5 g/hectare
[18] = Spraying water 3.0 hour after herbicide application, dosage 15 g/hectare
[19] = Spraying water 3.0 hour after herbicide application, dosage 30 g/hectare
[20] = Spraying water 3.0 hour after herbicide application, dosage 60 g/hectare
[21] = Spraying water 6.0 hour after herbicide application, dosage 3.75 g/hectare
[22] = Spraying water 6.0 hour after herbicide application, dosage 7.5 g/hectare
[23] = Spraying water 6.0 hour after herbicide application, dosage 15 g/hectare
[24] = Spraying water 6.0 hour after herbicide application, dosage 30 g/hectare
[25] = Spraying water 6.0 hour after herbicide application, dosage 60 g/hectare

`Cc1c(C(=O)c2cnn(C)c2O)ccc(S(C)(=O)=O)c1C1=NOCC1` [Topramezone] showed an Average fresh weight (Digitaria sanguinalis; [1]) of 6.2 g, a Control efficacy (Digitaria sanguinalis; [1]) of 4.6% and an Average fresh weight (Digitaria sanguinalis; [2]) of 5.0 g. For the same compound, the Control efficacy (Digitaria sanguinalis; [2]) was 23.4%, the Average fresh weight (Digitaria sanguinalis; [3]) was 3.7 g and the Control efficacy (Digitaria sanguinalis; [3]) was 43.7%. For the same compound, the Average fresh weight (Digitaria sanguinalis; [4]) was 2.3 g, the Control efficacy (Digitaria sanguinalis; [4]) was 64.8% and the Average fresh weight (Digitaria sanguinalis; [5]) was 1.2 g. For the same compound, the Control efficacy (Digitaria sanguinalis; [5]) was 82.4%, the Average fresh weight (Digitaria sanguinalis; [6]) was 6.5 g and the Control efficacy (Digitaria sanguinalis; [6]) was 0.0%. For the same compound, the Average fresh weight (Digitaria sanguinalis; [7]) was 6.0 g, the Control efficacy (Digitaria sanguinalis; [7]) was 7.7% and the Average fresh weight (Digitaria sanguinalis; [8]) was 5.9 g. It also gave a Control efficacy (Digitaria sanguinalis; [8]) of 10.3%, an Average fresh weight (Digitaria sanguinalis; [9]) of 5.5 g and a Control efficacy (Digitaria sanguinalis; [9]) of 16.5%. It also gave an Average fresh weight (Digitaria sanguinalis; [10]) of 4.6 g, a Control efficacy (Digitaria sanguinalis; [10]) of 29.1% and an Average fresh weight (Digitaria sanguinalis; [11]) of 6.4 g. For the same compound, the Control efficacy (Digitaria sanguinalis; [11]) was 2.7%, the Average fresh weight (Digitaria sanguinalis; [12]) was 6.0 g and the Control efficacy (Digitaria sanguinalis; [12]) was 8.0%. For the same compound, the Average fresh weight (Digitaria sanguinalis; [13]) was 5.7 g, the Control efficacy (Digitaria sanguinalis; [13]) was 13.4% and the Average fresh weight (Digitaria sanguinalis; [14]) was 5.3 g. It also gave a Control efficacy (Digitaria sanguinalis; [14]) of 19.2%, an Average fresh weight (Digitaria sanguinalis; [15]) of 4.7 g and a Control efficacy (Digitaria sanguinalis; [15]) of 28.0%. It also gave an Average fresh weight (Digitaria sanguinalis; [16]) of 6.4 g, a Control efficacy (Digitaria sanguinalis; [16]) of 1.5% and an Average fresh weight (Digitaria sanguinalis; [17]) of 5.8 g. For the same compound, the Control efficacy (Digitaria sanguinalis; [17]) was 10.7%, the Average fresh weight (Digitaria sanguinalis; [18]) was 5.7 g and the Control efficacy (Digitaria sanguinalis; [18]) was 13.4%. The Average fresh weight (Digitaria sanguinalis; [19]) was 4.1 g, the Control efficacy (Digitaria sanguinalis; [19]) was 36.8% and the Average fresh weight (Digitaria sanguinalis; [20]) was 3.3 g. For the same compound, the Control efficacy (Digitaria sanguinalis; [20]) was 50.2%, the Average fresh weight (Digitaria sanguinalis; [21]) was 6.5 g and the Control efficacy (Digitaria sanguinalis; [21]) was 0.4%. For the same compound, the Average fresh weight (Digitaria sanguinalis; [22]) was 5.1 g, the Control efficacy (Digitaria sanguinalis; [22]) was 21.8% and the Average fresh weight (Digitaria sanguinalis; [23]) was 3.5 g. It also gave a Control efficacy (Digitaria sanguinalis; [23]) of 46.0%, an Average fresh weight (Digitaria sanguinalis; [24]) of 2.7 g and a Control efficacy (Digitaria sanguinalis; [24]) of 59.4%. For the same compound, the Average fresh weight (Digitaria sanguinalis; [25]) was 1.2 g, the Control efficacy (Digitaria sanguinalis; [25]) was 81.2% and the “Effect of rain on control efficacy (in words)” value (Digitaria sanguinalis; rain 0.5 h, 1.0 h and 3.0 h after application) was “obviously affected; also recorded: significantly reduced”. For the same compound, the “Effect of rain on control efficacy (in words)” value (Digitaria sanguinalis; rain 6.0 h after application) was “relatively small impact; also recorded: almost unaffected”, the “Visual observation of corn” value (corn; 3 to 7 days after application) was “safe for corn” and the “Visual observation of corn” value (corn; 10 days after application) was “safe for corn”. The “Visual observation of corn” value (corn; 15 days after application) was “basically growing normally” and the “Overall safety for corn” value (corn; Zhengdan 958, waxy corn and sweet corn) was “high safety levels”.
